We go through ten compounds from PubChem BioAssay (NCI).

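Following 48 hours of exposure in 96-well plates, responses at five concentrations were used to interpolate endpoints linearly. GI50 = concentration required for 50% inhibition of growth. Definition used: TGI = concentration required for complete inhibition of growth.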 Bounds are passed on as bounds.

Some test systems named below: A549 NSCLC; SF-268 CNS; NCI-H522 lung; COLO 205 colon; SW-620 colon; MOLT-4 leukemia; HCT-116 colon; HOP-92 NSCLC; OVCAR-3 ovarian; SK-MEL-2 melanoma.
Common to all, as to experiment: NCI-60 cell line screen, 48 h

Regarding `C/C(=C(/c1ccc(O)cc1)c1ccc(OCCN2CCCC2)cc1)c1ccccc1`, the GI50 is 3.53 µM in the experiment with A549 NSCLC; 5.58 µM in the experiment with SF-268 CNS; 2.1 µM in the experiment with NCI-H522 lung; 1.7 µM with COLO 205 colon; 2.28 µM in the experiment with SW-620 colon; 2.94 µM in the experiment with MOLT-4 leukemia. Moreover, the GI50 with HCT-116 colon is 2.92 µM; in the experiment on HOP-92 NSCLC it was 2.24 µM; with OVCAR-3 ovarian it was 5.66 µM; with SK-MEL-2 melanoma it was 1.97 µM. Besides, the TGI came to 11 µM in the experiment with A549 NSCLC; 20.7 µM in the experiment on SF-268 CNS; 5.09 µM in the experiment on NCI-H522 lung; 3.38 µM in the experiment on COLO 205 colon; 5.17 µM in the experiment on SW-620 colon; 11 µM with MOLT-4 leukemia. In addition, the TGI was found to be 10.1 µM in the experiment on HCT-116 colon, 7.34 µM in the experiment on HOP-92 NSCLC, 18.1 µM in the experiment with OVCAR-3 ovarian and 3.95 µM in the experiment with SK-MEL-2 melanoma.
For `CCOC(=O)/C=C1\Nc2ccccc2C(c2ccccc2)=NC1OC(C)=O` (stereo not drawn), the TGI in the experiment with A549 NSCLC, in the experiment with SF-268 CNS, with NCI-H522 lung, with COLO 205 colon, in the experiment on SW-620 colon and in the experiment with MOLT-4 leukemia was above 100 µM in each case. For the same compound, the TGI with HCT-116 colon, with HOP-92 NSCLC, in the experiment on OVCAR-3 ovarian and with SK-MEL-2 melanoma was above 100 µM throughout.
Take `CC1=NN(C(=O)CC(=O)Nc2cccc(Cl)c2)C(=O)C1N=Nc1ccc(S(N)(=O)=O)cc1` (stereo not drawn): the TGI with A549 NSCLC, with SF-268 CNS, in the experiment with NCI-H522 lung, in the experiment with COLO 205 colon, in the experiment with SW-620 colon and in the experiment with MOLT-4 leukemia was above 100 µM throughout. The TGI in the experiment on HCT-116 colon, in the experiment on HOP-92 NSCLC, in the experiment on OVCAR-3 ovarian and in the experiment with SK-MEL-2 melanoma was above 100 µM each time.
For the compound `CCN(CC)CCC(=O)Nc1ccc(Cn2nnc3c2C(=O)c2nnn(Cc4ccc(NC(=O)CCN(CC)CC)cc4)c2C3=O)cc1`, the GI50 in the experiment with A549 NSCLC is 1.51 µM; with SF-268 CNS, 0.338 µM; in the experiment with NCI-H522 lung it was 0.18 µM; in the experiment on COLO 205 colon it was 0.175 µM; with SW-620 colon, 0.395 µM; with MOLT-4 leukemia, 0.242 µM. The GI50 in the experiment on HCT-116 colon is 0.283 µM; in the experiment with HOP-92 NSCLC, 0.325 µM; in the experiment on OVCAR-3 ovarian it was 0.265 µM; in the experiment on SK-MEL-2 melanoma, 0.22 µM. The TGI in the experiment on A549 NSCLC amounted to 3.4 µM; with SF-268 CNS it was 1.51 µM; in the experiment with NCI-H522 lung, 0.423 µM; with COLO 205 colon, 0.333 µM; in the experiment on SW-620 colon, 1.75 µM; in the experiment with MOLT-4 leukemia it was 0.628 µM. In addition, the TGI stood at 1.12 µM with HCT-116 colon, 0.913 µM in the experiment on HOP-92 NSCLC, 0.778 µM in the experiment on OVCAR-3 ovarian and 0.571 µM in the experiment on SK-MEL-2 melanoma.
As for `COC(=O)/C(=N\NC(=O)c1ccccc1O)C(C#N)c1ccc(Cl)cc1` (stereo not drawn), the TGI in the experiment with A549 NSCLC was above 100 µM; in the experiment on SF-268 CNS it was above 100 µM; in the experiment with NCI-H522 lung it was 72.3 µM; in the experiment on COLO 205 colon, above 100 µM; in the experiment on SW-620 colon, above 100 µM; in the experiment with MOLT-4 leukemia it was above 100 µM. Further, the TGI with HCT-116 colon, in the experiment on HOP-92 NSCLC, in the experiment with OVCAR-3 ovarian and in the experiment on SK-MEL-2 melanoma was above 100 µM in each case.
On to `COc1ccccc1Cn1cc2c(c1)-c1oncc1CC2`, for which the GI50 in the experiment with A549 NSCLC is 0.825 µM; in the experiment with SF-268 CNS, 1.21 µM; with NCI-H522 lung, 1.22 µM; with COLO 205 colon, 0.553 µM; in the experiment with SW-620 colon it was 0.351 µM; in the experiment with MOLT-4 leukemia, 0.477 µM. Besides, the GI50 is 0.39 µM with HCT-116 colon, 2.75 µM in the experiment with HOP-92 NSCLC, 0.307 µM in the experiment with OVCAR-3 ovarian and 4.43 µM in the experiment on SK-MEL-2 melanoma. Moreover, the TGI in the experiment on A549 NSCLC was above 75 µM; in the experiment with SF-268 CNS, above 75.1 µM; in the experiment on NCI-H522 lung, 5.08 µM; in the experiment on COLO 205 colon, 2.43 µM; in the experiment on SW-620 colon it was above 100 µM; with MOLT-4 leukemia, 14.8 µM. For the same compound, the TGI in the experiment on HCT-116 colon stood at 13.6 µM; in the experiment on HOP-92 NSCLC, 57.7 µM; in the experiment with OVCAR-3 ovarian, 0.888 µM; with SK-MEL-2 melanoma, 72.7 µM.
Take `Cc1c(C(C)C)cc(OCCO)cc1C(C)C`: the TGI was above 100 µM in the experiment with A549 NSCLC; above 100 µM in the experiment with SF-268 CNS; 81.5 µM in the experiment on NCI-H522 lung; above 100 µM in the experiment on COLO 205 colon; above 100 µM in the experiment on SW-620 colon; above 100 µM in the experiment on MOLT-4 leukemia. Besides, the TGI in the experiment on HCT-116 colon was above 100 µM; in the experiment with HOP-92 NSCLC, 57 µM; in the experiment with OVCAR-3 ovarian, above 100 µM; with SK-MEL-2 melanoma, 57.3 µM.
`CCOP(=O)(OCC)/C(C#N)=C\c1cccc2ccccc12`: the TGI with A549 NSCLC is above 100 µM; in the experiment on SF-268 CNS, 64.9 µM; in the experiment with NCI-H522 lung, above 100 µM; with COLO 205 colon it was above 100 µM; with SW-620 colon it was above 100 µM; with MOLT-4 leukemia, above 100 µM. Moreover, the TGI is above 100 µM in the experiment with HCT-116 colon, 93.6 µM in the experiment on HOP-92 NSCLC, above 100 µM in the experiment with OVCAR-3 ovarian and above 100 µM with SK-MEL-2 melanoma.
As to `C/C(=N\NS(=O)(=O)c1ccc(C)cc1)c1ccc[n+]([O-])n1`, the TGI in the experiment with A549 NSCLC, in the experiment with SF-268 CNS, in the experiment on NCI-H522 lung, in the experiment on SW-620 colon, in the experiment with MOLT-4 leukemia and in the experiment with HCT-116 colon was above 100 µM in each case. The TGI with HOP-92 NSCLC and in the experiment on OVCAR-3 ovarian was above 100 µM in each case.
For the compound `COc1cc2ccn3c4cc(OC)c(OC)cc4cc3c2cc1OC`, the TGI in the experiment with A549 NSCLC, in the experiment with SF-268 CNS, in the experiment on NCI-H522 lung, in the experiment with COLO 205 colon, in the experiment with SW-620 colon and in the experiment on MOLT-4 leukemia was above 100 µM each time. Also, the TGI in the experiment with HCT-116 colon, in the experiment on HOP-92 NSCLC, in the experiment on OVCAR-3 ovarian and in the experiment on SK-MEL-2 melanoma was above 100 µM each time.
